In PubChem BioAssay AID1996:
≈ marks a conversion by molar mass, not a printed value.

Details: buffer; pH 7.4; 200.0 µM

Structure (SMILES) | solubility kinetic
CCN(CC)CCCNc1nc(N)c([N+](=O)[O-])c(NCCO)n1 | > 49.1 µg/mL
CC1CCN(C(=S)NC(=O)c2ccc(F)cc2)CC1 | > 42.1 µg/mL
S=C(NCCc1ccccc1)Nc1c(Cl)cccc1Cl | 44.3 µg/mL (≈ 136 µM)
Cc1nc2ccc(NS(=O)(=O)c3ccc(F)c(F)c3F)cc2s1 | 50.7 µg/mL (≈ 141 µM)
O=C(Nc1cccnc1N1CCOCC1)c1cccs1 | > 43.4 µg/mL
CC(C)OC(=O)c1ccc(COC(=O)CNC(=O)c2ccco2)cc1 | 34.8 µg/mL (≈ 101 µM)
COc1ccccc1NC(=O)C(C)N(C)CC(=O)Nc1cccc2ccccc12.Cl (stereo not given) | > 64.2 µg/mL
O=C(CCc1ccccc1)NCCc1cccs1 | > 38.9 µg/mL
O=C1NC(=O)C(=Cc2ccsc2)C(=O)N1 | > 33.3 µg/mL
O=S(=O)(Cc1ccco1)Cc1nc(-c2ccc(Cl)cc2)cs1 | 0.9 µg/mL (≈ 2.54 µM)
COc1ccc(S(=O)(=O)N(C)C)cc1NC(=O)COC(=O)C1CC1 | > 53.5 µg/mL
C/C(=N\S(=O)(=O)c1ccc(C)cc1)N(C)C | > 36 µg/mL
Cc1nc(Oc2ccccc2)c2ccsc2n1 | 20 µg/mL (≈ 82.5 µM)
CN1N=C(C(=O)Nc2ccc3c(c2)CCC3)CCC1=O | > 40.7 µg/mL
O=C(CCCN1C(=O)C2CC=CCC2C1=O)Nc1ccccc1F (stereo not given) | > 49.6 µg/mL
CC1(C)C2CCC(C2)C1(C)NC(=O)C[N+](C)(C)C.[Cl-] (stereo not given) | 43.2 µg/mL
CC1CN(C)CCC1OC(=O)c1ccccc1.Cl (stereo not given) | > 40.5 µg/mL
CCOC(=O)C1=C(C)NC(=S)NC1c1ccco1 (stereo not given) | 39.9 µg/mL (≈ 150 µM)
COC(=O)CSc1nc2ccc(N)cc2s1 | > 38.1 µg/mL
NS(=O)(=O)c1ccc(CCNC(=O)c2ccc(Cl)s2)cc1 | 10.6 µg/mL (≈ 30.7 µM)

Structure (SMILES) | solubility kinetic
C=CCN1C(=O)C2(OCCCO2)c2c(C)ccc(C)c21 | 28.2 µg/mL (≈ 103 µM)
NC(=S)Nc1nc2ccccc2s1 | 25.8 µg/mL (≈ 123 µM)
COc1cc(CC(=O)N2CCN(C(=O)C3CCCO3)CC2)cc(OC)c1OC (stereo not given) | > 58.9 µg/mL
CCC(=O)Nc1c(-c2ccccc2)c(=O)c2ccccc2n1C | 44.9 µg/mL (≈ 147 µM)
CC(C)n1c(/N=C/c2ccccc2O)nc2ccccc21 | 31.4 µg/mL (≈ 112 µM)
CC1CCCCC1NC(=O)CO/N=C/c1ccc(OC(F)F)cc1 (stereo not given) | 8.7 µg/mL (≈ 25.6 µM)
NC(=O)NC(c1ccc(Cl)cc1)c1ccccc1Cl (stereo not given) | > 44.3 µg/mL
O=C(CCCc1ccccc1)NCCc1ccc(F)cc1 | 39.6 µg/mL (≈ 139 µM)
Cc1oncc1C(=O)NC1CCCCC1 | > 31.2 µg/mL
COc1cc2ccccc2cc1C(=O)N1CCCCC1 | > 40.4 µg/mL
CN(CCO)c1nc(N)c(C#N)c(CC#N)c1C#N | > 38.4 µg/mL
Cc1ccc(S(=O)(=O)N2CCC[C@H]2C(=O)OCC(=O)Nc2ccc3c(c2)OCO3)cc1 | 34.3 µg/mL (≈ 76.8 µM)
CCCS(=O)(=O)N1CCCC(C(=O)c2cccc(Cl)c2)C1 (stereo not given) | 44.7 µg/mL (≈ 136 µM)
Cc1ccc(NC(=O)c2oc3ccccc3c2COC(C)C)cc1S(=O)(=O)N1CCOCC1 | 3.6 µg/mL (≈ 7.62 µM)
CC(Sc1ncccn1)C(=O)N1CCc2ccccc21 (stereo not given) | 33.3 µg/mL (≈ 117 µM)
Cc1nc(N2CCN(C)CC2)c2cc(-c3ccccc3)sc2n1 | 1.8 µg/mL (≈ 5.55 µM)
Cc1ccc(N2CC(C(=O)NC3CCC(C)CC3)CC2=O)cc1 (stereo not given) | 2.5 µg/mL (≈ 7.95 µM)
O=C(Nc1ccccn1)c1sc2cccc(F)c2c1Cl | < 0.3 µg/mL
CCc1ccccc1OCC(=O)OCC(=O)N1CC(=O)Nc2ccccc21 | 35.7 µg/mL (≈ 96.9 µM)
Cc1onc(-c2ccccc2Cl)c1NC(=O)NCc1cccs1 | 42.6 µg/mL (≈ 122 µM)

Structure (SMILES) | solubility kinetic
CC1CN(S(=O)(=O)c2ccccc2)CN1C(=O)N1CCOCC1 (stereo not given) | > 50.9 µg/mL
Cc1ccc(NC(=S)NCCc2c[nH]c3ccccc23)c(C)c1 | 20.4 µg/mL (≈ 63.1 µM)
CN1C(C(=O)Nc2ccccn2)=C(O)c2sc(Cl)cc2S1(=O)=O | 15.5 µg/mL (≈ 41.7 µM)
C/C(=N\OCC(=O)O)c1ccc(Cl)cc1 | > 34.1 µg/mL
Cc1cccc(C(=O)OCC(=O)NCC2CCCO2)c1O (stereo not given) | > 44 µg/mL
Cc1cc(C=C2C(=O)N(C)C(=S)N(C)C2=O)c(C)n1-c1cccnc1 | 13.9 µg/mL (≈ 39.2 µM)
CCN(Cc1cc2cc(C)ccc2[nH]c1=O)C(=O)c1cccc([N+](=O)[O-])c1 | 11.5 µg/mL (≈ 31.5 µM)
Cc1cnc(C(=O)NCCc2ccc(Cl)cc2)cn1 | 36 µg/mL (≈ 131 µM)
NNC(=O)c1oc2ccccc2c1-n1cccc1 | > 36.2 µg/mL
CC(C)c1ccc(NC(=O)C2CSC3(C)CCC(=O)N23)cc1 (stereo not given) | 24.9 µg/mL (≈ 78.2 µM)
COc1ccccc1C(=O)COC(=O)C(NC(=O)Cc1ccccc1)C(C)C (stereo not given) | 56.5 µg/mL (≈ 147 µM)
Cn1c(N)c(C(=O)c2ccc(Cl)c(S(=O)(=O)N3CCCCCC3)c2)c(=O)n(C)c1=O | > 68.2 µg/mL
Cc1ccc(OCC(=O)NCCCNC(=O)c2cnccn2)cc1C | 49.9 µg/mL (≈ 146 µM)
CCOc1ccc(-n2c(C)c(C(=O)OC)c3cc(O)ccc32)cc1 | < 0.7 µg/mL
Cc1ccc(N(Cc2cc(=O)[nH]c3ccccc23)C(=O)CCl)c(C)c1 | 14.1 µg/mL (≈ 39.7 µM)
COc1cc(C)nc(NS(=O)(=O)c2ccccc2Cl)n1 | 38.9 µg/mL (≈ 124 µM)
O=[N+]([O-])c1ccc(N2CCCC2)nc1N1CCCC1 | 21.4 µg/mL (≈ 81.6 µM)
COC(=O)/C(=C\C(=O)c1ccccc1)Nc1ccc(OC)cc1 | 7.6 µg/mL (≈ 24.4 µM)
COc1ccc(C(=O)Nc2ccc(Nc3ccccc3)cc2)cc1Br | < 0.4 µg/mL
O=[N+]([O-])c1ccc(-n2cnc3ccccc32)c([N+](=O)[O-])c1 | > 42.6 µg/mL
